Results taken from patent publication US7241611B2, “Methods for synthesis of holo-photoactive yellow protein” (Universiteit Gent, priority 2002, dated 2007).
Like-named read-outs stand apart in the source and are kept apart here.

What was measured:
[1] = biological target: T1, PAL/TAL enzyme from the monocot Zea mays (Zea mays, UniProt Q8VXG7); details: pH 8.7; cited from earlier work
[2] = biological target: PAL-1 isozyme from parsley (Petroselinum crispum) (Petroselinum crispum, UniProt P24481); details: cited from earlier work
[3] = biological target: T1, PAL/TAL enzyme from the monocot Zea mays; assay: Kinetic parameters of the PAL/TAL enzyme from maize (Rösler et al., 1997); type: biochemical; details: pH 8.7
[4] = tested on: tyrosine ammonia lyase (TAL) from Rhodobacter capsulatus; type: biochemical; details: for pH optimum of activity (TAL with L-tyrosine, PAL with L-phenylalanine): pH 6
Method: Both activities were followed by the following spectrophotometric assay (adapted from Rösler et al. (1997)): PAL activity was assayed by following cinnamic acid formation at 280 nm using a double beam spectrophotometer (Uvikon, Kontron, Herts, United Kingdom) in 10 mM Tris buffer at 35° C. The pH optimum was determined between the pH values 6-10. The substrate concentrations were varied between 5 mM and 0.2 mM. TAL activity was assayed by monitoring p-hydroxycinnamic acid formation at 310 nm and 35° C. The substrate concentration was varied between 2 mM and 0.01 mM. All reactions were performed in a total volume of 1 ml.
FIG. 3 presents Lineweaver-Burk plots for the two substrates at their respective pH optimum.
Since PAL and TAL sequences show significant homology to histidine ammonia lyases (HAL), which are common enzymes in bacteria, we also tested L-histidine as a substrate for the recombinant enzyme.

[5] = Laser flash photolysis, photocycle kinetics of PYP; parameters: species or system Halorhodospira halophila; details: flash 440 nm, universal buffer pH 8.0
Method: The laser flash photolysis and spectroscopy apparatus and the methods used for data analysis were as previously described (Meyer et al., 1987). The PYP sample was dialysed against a universal buffer (20 mM MES, 20 mM HEPES, and 20 mM glycine, pH 8.0) prior to the experiment. We used 1 ml samples, with an absorbance at 445 nm of approximately 0.2, for the kinetic measurements. By flashing the PYP sample with laser light of 440 nm, we could determine the kinetics of the light-induced absorbance changes. FIGS. 9a and 9b show the I1→I2 bleach reaction and the I2→P recovery of our in vivo formed holo-PYP. It can be seen that after a flash with 440 nm light, the PYP went through a normal photocycle. […] The rate of recovery was 7.2 s^−1, compared to 6.3 s^−1 for wild-type and chemically reconstituted PYP (Meyer et al., 1987; Genick et al., 1997). […] Since this is different from the 3.4 ms^−1 reported by Genick et al. (1997), we repeated the experiment under our conditions with native PYP and found the rate to be 1.3 ms^−1. This is approximately the same as what we measured with our recombinant PYP.

[6] = reported by Genick et al. (1997); cited from earlier work

T1 sequence (Q8VXG7 whole entry): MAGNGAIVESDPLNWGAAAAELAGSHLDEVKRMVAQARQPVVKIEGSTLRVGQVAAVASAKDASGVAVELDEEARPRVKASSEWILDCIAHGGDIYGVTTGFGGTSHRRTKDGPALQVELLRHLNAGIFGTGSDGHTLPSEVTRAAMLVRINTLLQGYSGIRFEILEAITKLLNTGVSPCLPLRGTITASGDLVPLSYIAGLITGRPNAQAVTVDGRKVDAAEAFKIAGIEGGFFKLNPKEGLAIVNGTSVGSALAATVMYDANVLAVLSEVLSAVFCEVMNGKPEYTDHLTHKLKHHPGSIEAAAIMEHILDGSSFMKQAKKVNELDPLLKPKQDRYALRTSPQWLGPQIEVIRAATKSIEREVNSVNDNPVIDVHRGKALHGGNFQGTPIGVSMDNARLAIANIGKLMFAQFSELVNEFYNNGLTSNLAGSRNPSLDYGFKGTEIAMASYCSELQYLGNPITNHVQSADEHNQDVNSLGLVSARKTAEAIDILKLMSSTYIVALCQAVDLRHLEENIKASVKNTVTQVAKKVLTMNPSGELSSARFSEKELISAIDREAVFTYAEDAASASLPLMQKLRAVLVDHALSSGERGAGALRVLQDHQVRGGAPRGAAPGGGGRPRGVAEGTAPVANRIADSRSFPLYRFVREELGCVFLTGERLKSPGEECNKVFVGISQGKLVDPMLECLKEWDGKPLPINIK

N[C@@H](Cc1ccccc1)C(=O)O [L-Phenylalanine, L-phenylalanine]
Km [1]: 270 µM | kcat [1]: 10 s⁻¹ | Km [2]: 17.2 µM | kcat [2]: 22 s⁻¹ | fold higher Km value for L-Phe compared to L-Tyr [3]: 15 fold | fold higher Km for L-Phe than for L-Tyr [4]: 80 fold | pH optimum of activity (TAL with L-tyrosine, PAL with L-phenylalanine) [4]: 9.4

N[C@@H](Cc1ccc(O)cc1)C(=O)O [L-Tyrosine, L-tyrosine]
Km [1]: 19 µM | kcat [1]: 0.9 s⁻¹ | kcat [2]: 0.3 s⁻¹ | pH optimum of activity (TAL with L-tyrosine, PAL with L-phenylalanine) [4]: 8.5

N[C@@H](Cc1c[nH]cn1)C(=O)O [L-histidine]
activity as substrate (histidine ammonia lyase activity) ([4]; spectrophotometric assay of Schwede et al. (1999)): could not detect any activity

N[C@@H](Cc1c[nH]c2ccccc12)C(=O)O [L-tryptophan]
activity as substrate ([4]; up to a 5 mM concentration): no activity was detected

B1: recombinant PYP: holo-photoactive yellow protein formed in vivo in Escherichia coli with TAL, pCL and pyp genes (protein, UniProt P16113 1-125, looked up)
Photoactive yellow protein: MEHVAFGSEDIENTLAKMDDGQLDGLAFGAIQLDGDGNILQYNAAEGDITGRDPKQVIGKNFFKDVAPCTDSPEFYGKFKEGVASGNLNTMFEYTFDYQMTPTKVKVHMKKALSGDSYWVFVKRV
modifications: recombinant holo form, expressed in E. coli
rate constant of the bleach (I1→I2) [5]: 1.6 ms^−1

B2: chemically reconstituted PYP: recombinant apo-PYP with the chromophore chemically attached (Genick et al., 1997) (protein, UniProt P16113 1-125, looked up)
Photoactive yellow protein: MEHVAFGSEDIENTLAKMDDGQLDGLAFGAIQLDGDGNILQYNAAEGDITGRDPKQVIGKNFFKDVAPCTDSPEFYGKFKEGVASGNLNTMFEYTFDYQMTPTKVKVHMKKALSGDSYWVFVKRV
modifications: chemically attached chromophore
rate constant of the bleach (I1→I2) [6]: 3.4 ms^−1

B3: wild-type PYP: wild-type Halorhodospira halophila photoactive yellow protein (protein, UniProt P16113 1-125, looked up)
Photoactive yellow protein: MEHVAFGSEDIENTLAKMDDGQLDGLAFGAIQLDGDGNILQYNAAEGDITGRDPKQVIGKNFFKDVAPCTDSPEFYGKFKEGVASGNLNTMFEYTFDYQMTPTKVKVHMKKALSGDSYWVFVKRV
modifications: holo form with chromophore
rate constant of the bleach (I1→I2) [5]: 1.3 ms^−1
